Experimental data as given in US12391698B2, “Substituted piperidines and piperazines and methods for the treatment of CNS disorders” (SUVEN LIFE SCIENCES LIMITED, priority 2022, dated 2025).
Counter-ions that a name gives are not always drawn. Like-named read-outs stand apart in the source and are kept apart here.

Experiments:
[1] = molecular target: T1, cloned human 5-HT1A receptor (Homo sapiens, UniProt P08908); assay: Determination of Ki at 5-HT1A receptor (radioligand binding, [3H]-8-Hydroxy DPAT); conditions: HEK293-EBNA recombinant cells, [3H]-8-Hydroxy DPAT 0.8 nM
T1 construct: expressed in transfected cells; host or cells: HEK293-EBNA
T1 sequence (P08908 1-422): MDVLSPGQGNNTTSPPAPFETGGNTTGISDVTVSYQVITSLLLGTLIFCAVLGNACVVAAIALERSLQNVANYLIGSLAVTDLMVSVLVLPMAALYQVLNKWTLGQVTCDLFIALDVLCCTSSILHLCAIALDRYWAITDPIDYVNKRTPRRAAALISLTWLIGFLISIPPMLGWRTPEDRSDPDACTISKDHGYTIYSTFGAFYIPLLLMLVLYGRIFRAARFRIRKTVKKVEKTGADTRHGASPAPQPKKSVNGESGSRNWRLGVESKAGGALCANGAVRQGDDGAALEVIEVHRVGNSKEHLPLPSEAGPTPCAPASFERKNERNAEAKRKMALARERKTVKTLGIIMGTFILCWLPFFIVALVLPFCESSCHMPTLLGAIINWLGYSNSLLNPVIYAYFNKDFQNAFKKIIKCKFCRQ
How it was run: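 Membranes from HEK293-EBNA cells expressing recombinant human 5-HT1A were incubated with 0.8 nM [3H]-8-hydroxy-DPAT for 2 h at r.t. in pH 7.4 Tris-HCl buffer with EDTA, MgSO4 and ascorbic acid. Non-specific binding was defined with 0.1 mM U92016A; bound radioactivity after filtration was compared with controls.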

[2] = molecular target: cloned human SERT receptor (Homo sapiens, UniProt P31645); assay: Determination of Ki at SERT receptor (SPA binding, [3H]-Citalopram); conditions: HEK293 recombinant cells, [3H]-Citalopram 2 nM
Sequence of cloned human SERT receptor (P31645 whole entry): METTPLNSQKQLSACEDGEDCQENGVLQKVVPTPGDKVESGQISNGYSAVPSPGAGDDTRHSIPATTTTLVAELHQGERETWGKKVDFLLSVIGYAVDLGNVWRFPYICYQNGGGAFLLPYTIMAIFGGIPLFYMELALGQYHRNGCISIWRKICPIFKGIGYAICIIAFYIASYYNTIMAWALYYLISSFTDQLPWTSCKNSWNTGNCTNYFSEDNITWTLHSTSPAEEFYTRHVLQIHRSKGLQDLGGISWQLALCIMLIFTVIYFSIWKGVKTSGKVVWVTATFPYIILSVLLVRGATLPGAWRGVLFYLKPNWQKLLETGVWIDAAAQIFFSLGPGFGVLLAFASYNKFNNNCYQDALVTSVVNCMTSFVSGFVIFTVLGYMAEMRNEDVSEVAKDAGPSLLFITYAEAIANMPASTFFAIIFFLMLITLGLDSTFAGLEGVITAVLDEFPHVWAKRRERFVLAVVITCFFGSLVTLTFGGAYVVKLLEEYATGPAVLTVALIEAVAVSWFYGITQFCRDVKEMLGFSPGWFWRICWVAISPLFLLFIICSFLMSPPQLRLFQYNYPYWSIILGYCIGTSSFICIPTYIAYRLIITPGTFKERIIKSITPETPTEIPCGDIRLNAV
How it was run: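 HEK293-expressed human SERT; [3H]-citalopram at 2 nM final, nonspecific binding with 0.1 mM venlafaxine. Incubated 3 h at r.t. in 50 mM Tris-HCl pH 7.4, 150 mM NaCl, 5 mM KCl with SPA beads. Bead-proximal radioactivity compared with control values.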

[3] = molecular target: T2, recombinant human D2S receptor (Homo sapiens, UniProt P14416); assay: Determination of Kb at D2S receptor, pCRE-Luc reporter gene assay in CHO cells; assay type: cell-based; conditions: for agonist activity at human recombinant D2S receptor / antagonistic activity at human recombinant D2S receptor: pCRE-Luc reporter gene assay; for Kb: with 0.3 μM Dopamine and 1 μM forskolin, luciferase readout
T2 construct: expressed in transfected cells
T2 sequence (P14416 1-414 isoform P14416-2): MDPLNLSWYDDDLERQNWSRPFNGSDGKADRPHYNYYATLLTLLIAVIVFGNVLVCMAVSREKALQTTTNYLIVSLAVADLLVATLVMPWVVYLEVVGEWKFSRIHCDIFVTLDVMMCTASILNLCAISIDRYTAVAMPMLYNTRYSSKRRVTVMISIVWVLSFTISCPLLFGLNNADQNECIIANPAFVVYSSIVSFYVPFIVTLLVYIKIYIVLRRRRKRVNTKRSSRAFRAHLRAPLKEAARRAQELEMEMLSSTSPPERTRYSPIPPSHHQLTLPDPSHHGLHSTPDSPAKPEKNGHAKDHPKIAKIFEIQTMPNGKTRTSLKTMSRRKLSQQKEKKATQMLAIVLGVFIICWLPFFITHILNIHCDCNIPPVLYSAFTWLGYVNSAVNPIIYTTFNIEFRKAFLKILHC
Procedure: A stable CHO cell line expressing recombinant human […] receptor and pCRE-Luc reporter system was used for cell-based assay. The assay offers a non-radioactive based approach to determine binding of a compound to GPCRs. In this specific assay, the level of intracellular cAMP which is modulated by activation or inhibition of the receptor is measured. The recombinant cells harbor luciferase reporter gene under the control of cAMP response element.
The above cells were grown in 96 well clear bottom white plates in Hams F12 medium containing 10% fetal bovine serum (FBS). Prior to the addition of compounds or standard agonist, cells were serum starved overnight. Increasing concentrations of test compound were added along with 0.3 μM of Dopamine and 1 μM of forskolin in Opti-MEM medium to the cells. The incubation was continued at 37° C. in CO2 incubator for 4 hours. Medium was removed and cells were washed with phosphate buffered saline. The cells were lysed and luciferase activity was measured in a Luminometer. Luminescence units were plotted against the compound concentrations using GraphPad Prism software. EC50 values of the compounds were defined as the concentration required in reducing the luciferase activity by 50%. The Kb values were calculated by feeding the concentration of agonist used in the assay and its EC50 value in the same software.
References: European Journal of Pharmacology, 2005, 515, 10-19.

Male Swiss albino mice = assay: Forced swim test; assay type: in vivo, mouse; conditions: 10 mg/kg, p.o., 30 min after treatment
Procedure: Male Swiss albino mice having weight range of 30-40 g were used. Mice were dosed with vehicle or test compound. Thirty min after treatment, animals were individually placed inside the plexiglass cylinder (40 cm height×17 cm width) for 6 min. The depth of water (24±1° C.) was maintained at 18 cm. The immobility of the mice during the last 4 min were recorded in the 6 min trial. Forced swim test assesses antidepressant like effects of test compounds.

Male Wistar rats = assay: DOI-induced head twitch response; assay type: in vivo, rat; conditions: 3.0 mg/kg, s.c., 30 min prior to DOI
Procedure: On day 1 male Wistar rats (220-250 g) were habituated in a circular cylinder for a period of 15 min. On day 2, the rats were brought to the experimental room 30 min prior to the experiment. All the animals were administered with respective formulations i.e. vehicle or test compound 30 min prior to DOI or vehicle administration. Immediately following DOI or vehicle administration, the animals were kept in the circular cylinder for a period of 10 min to score the head twitches. Compounds which act as 5-HT2A antagonists attenuate DOI-induced head twitches.

[4] = molecular target: T3, recombinant rat 5-HT7 receptor (Rattus norvegicus, UniProt P32305); assay: Determination of Kb at 5-HT7 receptor, pCRE-Luc reporter gene assay in CHO cells; assay type: cell-based
T3 construct: expressed in transfected cells
T3 sequence (P32305 whole entry): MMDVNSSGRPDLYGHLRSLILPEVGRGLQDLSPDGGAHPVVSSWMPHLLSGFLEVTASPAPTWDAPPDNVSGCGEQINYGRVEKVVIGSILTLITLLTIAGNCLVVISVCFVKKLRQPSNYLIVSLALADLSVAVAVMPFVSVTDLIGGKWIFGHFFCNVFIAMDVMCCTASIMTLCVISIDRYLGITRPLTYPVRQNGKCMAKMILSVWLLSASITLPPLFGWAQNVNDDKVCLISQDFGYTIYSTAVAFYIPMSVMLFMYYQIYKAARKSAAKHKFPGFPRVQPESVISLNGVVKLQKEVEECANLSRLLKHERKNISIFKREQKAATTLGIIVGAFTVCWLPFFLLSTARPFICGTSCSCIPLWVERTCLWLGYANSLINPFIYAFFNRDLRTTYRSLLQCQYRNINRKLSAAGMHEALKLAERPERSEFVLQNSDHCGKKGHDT

O=C1C[C@@H]2CCCN2C(=O)N1CCCCN1CCN(c2nsc3ccccc23)CC1 [Example 2, 2-[4-(4-Benzo[d]isothiazol-3-yl-piperazin-1-yl)-butyl]-tetrahydro-pyrrolo[1,2-c]pyrimidine-1,3-dione oxalate]
Ki ([1]; read-out: Ki h5-HT1A): 0.06 nM | Ki ([2]; read-out: Ki hSERT): 1060 nM | agonist activity at human recombinant D2S receptor [3]: no detectable agonist activity | antagonistic activity at human recombinant D2S receptor [3]: antagonistic activity | Kb [3]: 33 nM | Inference, mice forced swim test (Male Swiss albino mice): Active | Inference, DOI-induced head twitch response (Male Wistar rats): Active | agonist activity at rat recombinant 5-HT7 receptor [4]: no detectable agonist activity

O=C1C[C@@H]2CCCN2C(=O)N1CCCCN1CCN(c2cccc3sccc23)CC1 [Example 4, 2-[4-(4-Benzo[b]thiophen-4-yl-piperazin-1-yl)-butyl]-tetrahydro-pyrrolo[1,2-c]pyrimidine-1,3-dione oxalate]
Ki ([1]; read-out: Ki h5-HT1A): 0.195 nM | Ki ([2]; read-out: Ki hSERT): 228 nM | agonist activity at human recombinant D2S receptor [3]: no detectable agonist activity | antagonistic activity at human recombinant D2S receptor [3]: antagonistic activity | Kb [3]: 54.4 nM

O=C1C[C@@H]2C[C@H](F)CN2C(=O)N1CCCCN1CCN(c2nsc3ccccc23)CC1 [Example 9, 2-[4-(4-Benzo[d]isothiazol-3-yl-piperazin-1-yl)-butyl]-6-fluoro-tetrahydro-pyrrolo[1,2-c]pyrimidine-1,3-dione oxalate]
Ki ([1]; read-out: Ki h5-HT1A): 0.89 nM | Ki ([2]; read-out: Ki hSERT): 833 nM | agonist activity at rat recombinant 5-HT7 receptor [4]: no detectable agonist activity

O=C1C[C@@H]2C[C@H]3C[C@H]3N2C(=O)N1CCCCN1CCN(c2nsc3ccccc23)CC1 [Example 11, 3-[4-(4-Benzo[d]isothiazol-3-yl-piperazin-1-yl)-butyl]-hexahydro-1b,3-diaza-cyclopropa[a]indene-2,4-dione oxalate]
Ki ([1]; Ki h5-HT1A): 0.29 nM | Ki ([2]; Ki hSERT): 1280 nM | agonist activity at rat recombinant 5-HT7 receptor [4]: no detectable agonist activity
